Results from PubChem BioAssay (NCI).
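How tested: cells in 96-well plates exposed to compound for 48 hours at five concentrations. The concentration for full growth arrest is given as TGI.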

Tests used:
Experiment in all cases: NCI tumour cell line growth inhibition, 48 h
[1] = tested on: SF-268 CNS
[2] = tested on: UACC-257 melanoma
[3] = tested on: SK-MEL-5 melanoma
[4] = tested on: HCT-15 colon
[5] = tested on: A498 renal
[6] = tested on: HCC-2998 colon
[7] = tested on: NCI/ADR-RES ovarian
[8] = tested on: IGROV1 ovarian
[9] = tested on: SW-620 colon
[10] = tested on: SK-MEL-2 melanoma
[11] = tested on: OVCAR-3 ovarian
[12] = tested on: TK-10 renal
[13] = tested on: MDA-MB-435
[14] = tested on: SN12C renal
[15] = tested on: SNB-75 CNS
[16] = tested on: RPMI-8226 leukemia
[17] = tested on: T-47D breast
[18] = tested on: HL-60(TB) leukemia
[19] = tested on: U251 CNS
[20] = tested on: MALME-3M melanoma
[21] = tested on: BT-549 breast
[22] = tested on: MDA-MB-231 breast
[23] = tested on: OVCAR-5 ovarian
[24] = tested on: HOP-62 NSCLC
[25] = tested on: ACHN renal
[26] = tested on: CAKI-1 renal
[27] = tested on: HOP-92 NSCLC
[28] = tested on: SF-539 CNS
[29] = tested on: SK-OV-3 ovarian
[30] = tested on: SF-295 CNS
[31] = tested on: UACC-62 melanoma
[32] = tested on: A549 NSCLC
[33] = tested on: NCI-H460 lung
[34] = tested on: SK-MEL-28 melanoma
[35] = tested on: SNB-19 CNS
[36] = tested on: SR leukemia
[37] = tested on: K-562 leukemia
[38] = tested on: MDA-N
[39] = tested on: COLO 205 colon
[40] = tested on: HT29 colon
[41] = tested on: OVCAR-4 ovarian
[42] = tested on: CCRF-CEM leukemia
[43] = tested on: PC-3 prostate
[44] = tested on: HCT-116 colon
[45] = tested on: EKVX NSCLC
[46] = tested on: M14 melanoma
[47] = tested on: RXF 393 renal
[48] = tested on: 786-0 renal
[49] = tested on: OVCAR-8 ovarian
[50] = tested on: KM12 colon
[51] = tested on: LOX IMVI melanoma
[52] = tested on: MCF7 breast
[53] = tested on: NCI-H226 lung
[54] = tested on: NCI-H23 lung
[55] = tested on: HS 578T breast
[56] = tested on: NCI-H522 lung
[57] = tested on: UO-31 renal
[58] = tested on: DU-145 prostate
[59] = tested on: MOLT-4 leukemia

Measured: TGI

Nc1ccc(Cc2ccc(N)c(C(=O)O)c2)cc1C(=O)O
not listed: [58] | [59]
> 100 µM: all other assays above

CCC1=NC(N/N=C/c2ccco2)=N/C1=C\c1ccco1
not listed: [11] | [15] | [28] | [52]
> 100 µM: all other assays above
